One may read the IC50 as the concentration that gives 50% inhibition.

21 compounds from patent US11339157B1, “4H-pyrrolo[3,2-c]pyridin-4-one derivatives” (Bayer Aktiengesellschaft, priority 2017, dated 2022) can be followed below.

For assay [1], the target named is EGFR ins SVD (insertion of SVD between D770 and N771) (Homo sapiens, UniProt P00533, INS767SVD). The assay is described as follows: Exon 20-Mutant-EGFR(D770_N771insSVD) kinase assay (TR-FRET). The assay is classed as biochemical. The following applies: Table 9; read-out: mutEGFR (D770_N771insSVD) kinase assay IC50.
EGFR ins SVD (insertion of SVD between D770 and N771), sequence (P00533 with tags, fused parts or gaps INS767SVD limits assumed): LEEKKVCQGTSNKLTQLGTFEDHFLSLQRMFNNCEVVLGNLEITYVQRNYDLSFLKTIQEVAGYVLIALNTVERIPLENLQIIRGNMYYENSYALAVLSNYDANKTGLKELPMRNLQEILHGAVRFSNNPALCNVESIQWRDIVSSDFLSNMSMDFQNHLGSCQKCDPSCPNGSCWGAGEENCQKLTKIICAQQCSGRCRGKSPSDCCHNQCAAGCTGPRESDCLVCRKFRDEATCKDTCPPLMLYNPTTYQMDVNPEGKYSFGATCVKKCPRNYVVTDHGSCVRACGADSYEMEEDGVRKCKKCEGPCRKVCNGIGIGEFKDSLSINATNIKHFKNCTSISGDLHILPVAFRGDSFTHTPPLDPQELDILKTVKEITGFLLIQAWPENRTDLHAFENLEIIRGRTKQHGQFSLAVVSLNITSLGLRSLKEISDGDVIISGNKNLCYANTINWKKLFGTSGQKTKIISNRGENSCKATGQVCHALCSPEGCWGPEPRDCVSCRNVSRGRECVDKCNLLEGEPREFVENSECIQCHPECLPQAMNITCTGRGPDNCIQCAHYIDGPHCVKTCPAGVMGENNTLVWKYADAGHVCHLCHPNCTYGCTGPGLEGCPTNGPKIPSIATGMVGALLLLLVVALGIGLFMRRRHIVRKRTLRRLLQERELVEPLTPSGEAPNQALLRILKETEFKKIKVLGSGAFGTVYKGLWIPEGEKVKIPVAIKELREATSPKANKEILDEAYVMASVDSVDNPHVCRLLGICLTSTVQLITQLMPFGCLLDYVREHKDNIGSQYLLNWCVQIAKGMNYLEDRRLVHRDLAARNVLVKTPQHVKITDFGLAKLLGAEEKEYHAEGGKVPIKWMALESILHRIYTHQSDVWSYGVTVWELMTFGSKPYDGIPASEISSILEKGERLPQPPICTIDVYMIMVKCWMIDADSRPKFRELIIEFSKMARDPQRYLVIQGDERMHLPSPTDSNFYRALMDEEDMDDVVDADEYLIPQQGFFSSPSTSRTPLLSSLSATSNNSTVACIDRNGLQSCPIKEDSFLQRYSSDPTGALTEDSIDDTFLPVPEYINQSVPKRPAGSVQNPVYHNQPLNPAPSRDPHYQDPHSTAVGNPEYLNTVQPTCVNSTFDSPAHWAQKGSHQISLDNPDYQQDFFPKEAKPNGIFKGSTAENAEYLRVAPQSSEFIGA
A further assay relates to Ba/F3-EGFR-WT cells. The assay is described as follows: Proliferation assay in BA/F3 (wild type) cells (Cell Titer-Glo). It is filed as cell-based. The note with it: Table 10, plated with 10 ng/mL EGF. Here is the method: (§1) Cellular Data Description (WT, insSVD, Ins ASV)
(§2) Plates were incubated at 37° C. for 48 h. Retrovirus was harvested by filtering the media supernatant through a 0.45 μm filter.
(§3) Ba/F3 cells purchased from DSMZ were grown in RPMI+10% FBS+10 ng/mL IL-3 and infected with filtered retroviral supernatant at a 1:2 dilution. Polybrene was added to a concentration of 8 μg/mL, plates were spun for 90 min, and incubated overnight at 37° C. 2 μg/mL puromycin was added to the infected cells 24 h after infection and cells were continually grown in the presence of puromycin and 10 ng/mL IL-3. Following stably expressing Ba/F3 cell lines were generated: Ba/F3-EGFR-WT, Ba/F3-EGFR-insSVD.
(§4) The cells ectopically expressing WT EGFR were plated with 10 ng/mL Millipore Culture grade EGF. The cells ectopically expressing EGFR-insSVD were plated without EGF.
(§5) 100 nL of compound was added to each well using a 100 nL pin head, and plates were incubated at 37° C. for 48 h.
(§6) Cell viability was measured by adding 30 μL of Cell Titer-Glo Luminescent Cell Viability Reagent. Plates were sealed with Perkin Elmer Top-Seal, inverted several times to mix, and immediately centrifuged at 1000 rpm for 2 min. Plates were incubated in low light conditions for 8-10 min and luminescence was measured.

A further assay concerns Ba/F3-EGFR-insSVD cells. The experiment in a line: Proliferation assay in BA/F3 (ins SVD) cells (Cell Titer-Glo). It is filed as cell-based. Here is the method: as §1, §2, §3, §4, §5, §6
The mark [2] stands for this setting: Table 10, plated without EGF, 48 h.
Setting [3] is: Mus musculus, BaF3, 48 h, Table 10, plated without EGF.
The mark [4] stands for this setting: Mus musculus, BaF3, Table 10, plated without EGF, 48 h.

Where “and” joins values, the source holds several entries; their conditions need not be identical. Equal values may be shown once.

As to `COc1c(F)cccc1Nc1c(-c2ccncc2OCC2CCCO2)[nH]c2c1C(=O)NCC2` (single isomer, unassigned; enantiomer 1) [Example 88, 3-(3-fluoro-2-methoxyanilino)-2-{3-[(oxolan-2-yl)methoxy]pyridin-4-yl}-1,5,6,7-tetrahydro-4H-pyrrolo[3,2-c]pyridin-4-one (enantiomer 1)], the IC50 was 0.0888 nM in assay [1]; 388 nM in the assay on Ba/F3-EGFR-WT cells (Mus musculus, BaF3, 48 h); 38 nM in the assay with Ba/F3-EGFR-insSVD cells (setting [2]).

Regarding `COc1c(F)cccc1Nc1c(-c2ccncc2OCC2CCCO2)[nH]c2c1C(=O)NCC2` (single isomer, unassigned; enantiomer 2) [Example 89, 3-(3-fluoro-2-methoxyanilino)-2-{3-[(oxolan-2-yl)methoxy]pyridin-4-yl}-1,5,6,7-tetrahydro-4H-pyrrolo[3,2-c]pyridin-4-one (enantiomer 2)], the values for the IC50 (in assay [1]; with Ba/F3-EGFR-WT cells (48 h); in the assay with Ba/F3-EGFR-insSVD cells (setting [2])) were 0.108 nM, 252 nM and 12.8 nM, respectively.

As to `COC(C)(C)COc1cnccc1-c1[nH]c2c(c1Nc1cccc(F)c1C)C(=O)NCC2` [Example 21, 3-[(3-fluoro-2-methylphenyl)amino]-2-[3-(2-methoxy-2-methylpropoxy)pyridin-4-yl]-1,5,6,7-tetrahydro-4H-pyrrolo[3,2-c]pyridin-4-one], the IC50 was 251 nM with Ba/F3-EGFR-WT cells (Mus musculus, BaF3, 48 h); 8.81 nM in the assay on Ba/F3-EGFR-insSVD cells (setting [3]); 7.48 nM and < 4.78 nM and 6.8 nM and 7.49 nM with Ba/F3-EGFR-insSVD cells (setting [2]).

For `COCCOc1cnccc1-c1[nH]c2c(c1Nc1cccc(Cl)c1OC)C(=O)NCC2` [Example 32, 3-(3-chloro-2-methoxyanilino)-2-[3-(2-methoxyethoxy)pyridin-4-yl]-1,5,6,7-tetrahydro-4H-pyrrolo[3,2-c]pyridin-4-one], the half-inhibitory concentration (IC50) was 0.076 nM and < 0.0725 nM in assay [1]; 299 nM in the assay on Ba/F3-EGFR-WT cells (Mus musculus, BaF3, 48 h); 9.87 nM in the assay with Ba/F3-EGFR-insSVD cells (setting [3]).

`COc1c(Cl)cccc1Nc1c(-c2ccncc2OCC(C)(C)OC)[nH]c2c1C(=O)NCC2` [Example 33, 3-(3-chloro-2-methoxyanilino)-2-[3-(2-methoxy-2-methylpropoxy)pyridin-4-yl]-1,5,6,7-tetrahydro-4H-pyrrolo[3,2-c]pyridin-4-one]: the concentration for half-maximal inhibition (IC50) in assay [1] was 0.225 nM and 0.334 nM and 0.166 nM and 0.161 nM and 0.275 nM and < 0.0725 nM; in the assay on Ba/F3-EGFR-WT cells (Mus musculus, BaF3, 48 h), 476 nM; in the assay with Ba/F3-EGFR-insSVD cells (setting [3]), 9.32 nM.

On to `COC(C)(C)COc1cnccc1-c1[nH]c2c(c1Nc1cccc(Cl)c1Cl)C(=O)NCC2` [Example 34, 3-(2,3-dichloroanilino)-2-[3-(2-methoxy-2-methylpropoxy)pyridin-4-yl]-1,5,6,7-tetrahydro-4H-pyrrolo[3,2-c]pyridin-4-one], for which the IC50 in assay [1] worked out at 0.0946 nM; in the assay with Ba/F3-EGFR-WT cells (Mus musculus, BaF3, 48 h), 278 nM; with Ba/F3-EGFR-insSVD cells (setting [3]), 7 nM.

Turning to `CCc1c(F)cccc1Nc1c(-c2ccncc2OCC(C)(C)OC)[nH]c2c1C(=O)NCC2` [Example 35, 3-(2-ethyl-3-fluoroanilino)-2-[3-(2-methoxy-2-methylpropoxy)pyridin-4-yl]-1,5,6,7-tetrahydro-4H-pyrrolo[3,2-c]pyridin-4-one], the IC50 in assay [1] stood at 0.185 nM; in the assay with Ba/F3-EGFR-WT cells (Mus musculus, BaF3, 48 h), 428 nM; in the assay on Ba/F3-EGFR-insSVD cells (setting [3]), 7.98 nM.

For `COC(C)(C)COc1cnccc1-c1[nH]c2c(c1Nc1cccc(Cl)c1C)C(=O)NCC2` [Example 36, 3-(3-chloro-2-methylanilino)-2-[3-(2-methoxy-2-methylpropoxy)pyridin-4-yl]-1,5,6,7-tetrahydro-4H-pyrrolo[3,2-c]pyridin-4-one], the IC50 in assay [1] is 0.194 nM; in the assay on Ba/F3-EGFR-WT cells (Mus musculus, BaF3, 48 h), 529 nM; in the assay with Ba/F3-EGFR-insSVD cells (setting [3]), 9.55 nM.

On to `COC(C)(C)COc1cnccc1-c1[nH]c2c(c1Nc1cccc(F)c1Br)C(=O)NCC2` [Example 37, 3-(2-bromo-3-fluoroanilino)-2-[3-(2-methoxy-2-methylpropoxy)pyridin-4-yl]-1,5,6,7-tetrahydro-4H-pyrrolo[3,2-c]pyridin-4-one], for which the IC50 in assay [1] is 0.12 nM and 0.0795 nM and 0.107 nM and 0.0958 nM and < 0.0725 nM (2×); in the assay with Ba/F3-EGFR-WT cells (Mus musculus, BaF3, 48 h) it was 583 nM; in the assay on Ba/F3-EGFR-insSVD cells (setting [3]), 16 nM.

Regarding `COC(C)(C)COc1cnccc1-c1[nH]c2c(c1Nc1cccc(Cl)c1OC(F)F)C(=O)NCC2` [Example 38, 3-[3-chloro-2-(difluoromethoxy)anilino]-2-[3-(2-methoxy-2-methylpropoxy)pyridin-4-yl]-1,5,6,7-tetrahydro-4H-pyrrolo[3,2-c]pyridin-4-one], the IC50 was 0.13 nM in assay [1]; 466 nM with Ba/F3-EGFR-WT cells (Mus musculus, BaF3, 48 h); 17.5 nM in the assay on Ba/F3-EGFR-insSVD cells (setting [3]).

On to `COC(C)(C)COc1cnccc1-c1[nH]c2c(c1Nc1ccccc1Cl)C(=O)NCC2` [Example 39, 3-(2-chloroanilino)-2-[3-(2-methoxy-2-methylpropoxy)pyridin-4-yl]-1,5,6,7-tetrahydro-4H-pyrrolo[3,2-c]pyridin-4-one], for which the IC50 stood at 0.104 nM in assay [1]; 661 nM in the assay with Ba/F3-EGFR-WT cells (Mus musculus, BaF3, 48 h); 27.5 nM in the assay with Ba/F3-EGFR-insSVD cells (setting [3]).

With `COC(C)(C)COc1cnccc1-c1[nH]c2c(c1Nc1cc(F)cc(F)c1C)C(=O)NCC2` [Example 40, 3-(3,5-difluoro-2-methylanilino)-2-[3-(2-methoxy-2-methylpropoxy)pyridin-4-yl]-1,5,6,7-tetrahydro-4H-pyrrolo[3,2-c]pyridin-4-one], the IC50 stood at 0.0994 nM in assay [1]; 1450 nM in the assay with Ba/F3-EGFR-WT cells (Mus musculus, BaF3, 48 h); 50.5 nM in the assay on Ba/F3-EGFR-insSVD cells (setting [3]).

On to `COC(C)(C)COc1cnccc1-c1[nH]c2c(c1Nc1cccc(F)c1C(F)(F)F)C(=O)NCC2` [Example 41, 3-[3-fluoro-2-(trifluoromethyl)anilino]-2-[3-(2-methoxy-2-methylpropoxy)pyridin-4-yl]-1,5,6,7-tetrahydro-4H-pyrrolo[3,2-c]pyridin-4-one], for which the IC50 in assay [1] was 0.124 nM; in the assay on Ba/F3-EGFR-WT cells (Mus musculus, BaF3, 48 h), 795 nM; in the assay with Ba/F3-EGFR-insSVD cells (setting [3]), 52.5 nM.

On to `COC(C)(C)COc1cnccc1-c1[nH]c2c(c1Nc1ccccc1C(F)(F)F)C(=O)NCC2` [Example 42, 2-[3-(2-methoxy-2-methylpropoxy)pyridin-4-yl]-3-[2-(trifluoromethyl)anilino]-1,5,6,7-tetrahydro-4H-pyrrolo[3,2-c]pyridin-4-one], for which the IC50 in assay [1] stood at 0.19 nM; in the assay with Ba/F3-EGFR-WT cells (Mus musculus, BaF3, 48 h) it was 625 nM; in the assay on Ba/F3-EGFR-insSVD cells (setting [3]), 72.9 nM.

Take `COC(C)(C)COc1cnccc1-c1[nH]c2c(c1Nc1cc(F)cc(F)c1OC(F)F)C(=O)NCC2` [Example 43, 3-[2-(difluoromethoxy)-3,5-difluoroanilino]-2-[3-(2-methoxy-2-methylpropoxy)pyridin-4-yl]-1,5,6,7-tetrahydro-4H-pyrrolo[3,2-c]pyridin-4-one]: the IC50 in assay [1] was found to be 0.1 nM; in the assay with Ba/F3-EGFR-WT cells (Mus musculus, BaF3, 48 h) it was 1880 nM; in the assay with Ba/F3-EGFR-insSVD cells (setting [3]) it was 117 nM.

Turning to `COc1c(Nc2c(-c3ccncc3OCC(C)(C)OC)[nH]c3c2C(=O)NCC3)ccc(F)c1Cl` [Example 44, 3-(3-chloro-4-fluoro-2-methoxyanilino)-2-[3-(2-methoxy-2-methylpropoxy)pyridin-4-yl]-1,5,6,7-tetrahydro-4H-pyrrolo[3,2-c]pyridin-4-one], the IC50 in assay [1] is 0.0922 nM and < 0.0725 nM; in the assay with Ba/F3-EGFR-WT cells (Mus musculus, BaF3, 48 h), 2450 nM; with Ba/F3-EGFR-insSVD cells (setting [3]), 173 nM.

Regarding `COC(C)(C)COc1cnccc1-c1[nH]c2c(c1Nc1cc(F)ccc1C)C(=O)NCC2` [Example 45, 3-(5-fluoro-2-methylanilino)-2-[3-(2-methoxy-2-methylpropoxy)pyridin-4-yl]-1,5,6,7-tetrahydro-4H-pyrrolo[3,2-c]pyridin-4-one], the IC50 in assay [1] turned out to be 0.319 nM; with Ba/F3-EGFR-WT cells (Mus musculus, BaF3, 48 h) it was 2490 nM; with Ba/F3-EGFR-insSVD cells (setting [3]), 255 nM.

As to `COCCOc1cnccc1-c1[nH]c2c(c1Nc1cccc(Cl)c1Cl)C(=O)NCC2` [Example 46, 3-(2,3-dichloroanilino)-2-[3-(2-methoxyethoxy)pyridin-4-yl]-1,5,6,7-tetrahydro-4H-pyrrolo[3,2-c]pyridin-4-one], the half-maximal inhibitory concentration (IC50) in assay [1] turned out to be 0.0912 nM; with Ba/F3-EGFR-WT cells (Mus musculus, BaF3, 48 h), 364 nM; with Ba/F3-EGFR-insSVD cells (setting [3]), 15.1 nM.

Consider `COCCOc1cnccc1-c1[nH]c2c(c1Nc1ccccc1C(F)(F)F)C(=O)NCC2` [Example 47, 2-[3-(2-methoxyethoxy)pyridin-4-yl]-3-[2-(trifluoromethyl)anilino]-1,5,6,7-tetrahydro-4H-pyrrolo[3,2-c]pyridin-4-one], for which the IC50 amounted to 0.169 nM in assay [1]; 3240 nM in the assay on Ba/F3-EGFR-WT cells (Mus musculus, BaF3, 48 h); 448 nM in the assay on Ba/F3-EGFR-insSVD cells (setting [3]).

Regarding `COc1c(Cl)cccc1Nc1c(-c2ccncc2OC[C@@H]2CCCO2)[nH]c2c1C(=O)NCC2` [Example 66, 3-(3-chloro-2-methoxyanilino)-2-(3-{[(2S)-oxolan-2-yl]methoxy}pyridin-4-yl)-1,5,6,7-tetrahydro-4H-pyrrolo[3,2-c]pyridin-4-one], the IC50 in assay [1] amounted to 0.0932 nM; in the assay with Ba/F3-EGFR-insSVD cells (setting [4]) it was 4.6 nM.

For `COc1c(Cl)cccc1Nc1c(-c2ccncc2OC[C@H]2CCCO2)[nH]c2c1C(=O)NCC2` [Example 67, 3-(3-chloro-2-methoxyanilino)-2-(3-{[(2R)-oxolan-2-yl]methoxy}pyridin-4-1)-1,5,6,7-tetrahydro-4H-pyrrolo[3,2-c]pyridin-4-one], the IC50 in assay [1] was determined as 0.0908 nM; in the assay on Ba/F3-EGFR-insSVD cells (setting [4]), 9.33 nM.
